Measurements: PubChem BioAssay (NCI)
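Following 48 hours of exposure in 96-well plates, responses at five concentrations were used to interpolate endpoints linearly. TGI is the concentration that stops growth completely.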

Legend:
Assay in all cases: NCI-60 cell line screen, 48 h
[1] = tested on: 786-0 renal
[2] = tested on: A498 renal
[3] = tested on: A549 NSCLC
[4] = tested on: ACHN renal
[5] = tested on: CAKI-1 renal
[6] = tested on: CCRF-CEM leukemia
[7] = tested on: COLO 205 colon
[8] = tested on: DLD-1 colon
[9] = tested on: DMS 114 small cell lung
[10] = tested on: DMS 273 small cell lung
[11] = tested on: EKVX NSCLC
[12] = tested on: HCC-2998 colon
[13] = tested on: HCT-116 colon
[14] = tested on: HCT-15 colon
[15] = tested on: HL-60(TB) leukemia
[16] = tested on: HOP-18 NSCLC
[17] = tested on: HOP-62 NSCLC
[18] = tested on: HOP-92 NSCLC
[19] = tested on: HT29 colon
[20] = tested on: IGROV1 ovarian
[21] = tested on: K-562 leukemia
[22] = tested on: KM12 colon
[23] = tested on: KM20L2 colon
[24] = tested on: LOX IMVI melanoma
[25] = tested on: LXFL 529 NSCLC
[26] = tested on: M14 melanoma
[27] = tested on: M19-MEL melanoma
[28] = tested on: MALME-3M melanoma
[29] = tested on: MOLT-4 leukemia
[30] = tested on: NCI-H226 lung
[31] = tested on: NCI-H23 lung
[32] = tested on: NCI-H460 lung
[33] = tested on: NCI-H522 lung
[34] = tested on: OVCAR-3 ovarian
[35] = tested on: OVCAR-4 ovarian
[36] = tested on: OVCAR-5 ovarian
[37] = tested on: OVCAR-8 ovarian
[38] = tested on: RPMI-8226 leukemia
[39] = tested on: RXF 393 renal
[40] = tested on: RXF-631 renal
[41] = tested on: SF-268 CNS
[42] = tested on: SF-295 CNS
[43] = tested on: SF-539 CNS
[44] = tested on: SK-MEL-2 melanoma
[45] = tested on: SK-MEL-28 melanoma
[46] = tested on: SK-MEL-5 melanoma
[47] = tested on: SK-OV-3 ovarian
[48] = tested on: SN12C renal
[49] = tested on: SNB-19 CNS
[50] = tested on: SNB-75 CNS
[51] = tested on: SNB-78 CNS
[52] = tested on: SR leukemia
[53] = tested on: SW-620 colon
[54] = tested on: TK-10 renal
[55] = tested on: U251 CNS
[56] = tested on: UACC-257 melanoma
[57] = tested on: UACC-62 melanoma
[58] = tested on: UO-31 renal
[59] = tested on: XF 498 CNS
[60] = tested on: BT-549 breast
[61] = tested on: DU-145 prostate
[62] = tested on: HS 578T breast
[63] = tested on: MCF7 breast
[64] = tested on: MDA-MB-231 breast
[65] = tested on: MDA-MB-435
[66] = tested on: MDA-N
[67] = tested on: NCI/ADR-RES ovarian
[68] = tested on: PC-3 prostate
[69] = tested on: T-47D breast

O=C1C=Cc2c(-c3ccccc3)oc3cccc1c23
TGI [1]: > 100 µM | TGI [2]: > 100 µM | TGI [3]: > 100 µM | TGI [4]: > 76.6 µM | TGI [5]: 48.5 µM | TGI [6]: 64.6 µM | TGI [7]: > 82.1 µM | TGI [8]: > 100 µM | TGI [9]: 89 µM | TGI [10]: > 100 µM | TGI [11]: 15.5 µM | TGI [12]: > 100 µM | TGI [13]: > 73.1 µM | TGI [14]: > 75.4 µM | TGI [15]: 27.9 µM | TGI [16]: > 100 µM | TGI [17]: > 100 µM | TGI [18]: 73.2 µM | TGI [19]: > 100 µM | TGI [20]: > 100 µM | TGI [21]: 48.1 µM | TGI [22]: > 100 µM | TGI [23]: > 100 µM | TGI [24]: > 52.7 µM | TGI [25]: > 100 µM | TGI [26]: > 100 µM | TGI [27]: > 100 µM | TGI [28]: > 100 µM | TGI [29]: 19.5 µM | TGI [30]: > 70.9 µM | TGI [31]: 62.9 µM | TGI [32]: > 80.5 µM | TGI [33]: > 81 µM | TGI [34]: > 100 µM | TGI [35]: > 100 µM | TGI [36]: > 96 µM | TGI [37]: > 100 µM | TGI [38]: 19 µM | TGI [39]: > 69 µM | TGI [40]: > 100 µM | TGI [41]: > 100 µM | TGI [42]: > 100 µM | TGI [43]: > 100 µM | TGI [44]: > 100 µM | TGI [45]: > 100 µM | TGI [46]: > 100 µM | TGI [47]: > 80.2 µM | TGI [48]: > 100 µM | TGI [49]: > 100 µM | TGI [50]: 81.8 µM | TGI [51]: > 100 µM | TGI [52]: > 54.4 µM | TGI [53]: > 100 µM | TGI [54]: > 92.2 µM | TGI [55]: > 100 µM | TGI [56]: > 100 µM | TGI [57]: 99.1 µM | TGI [58]: > 82.6 µM | TGI [59]: 67.7 µM

CCOC1c2cc(OC)c(OC)cc2-c2ccc3ccccc3c2N1C (configuration not stated)
TGI [1]: > 64.6 µM | TGI [3]: 52.7 µM | TGI [4]: > 87.5 µM | TGI [60]: 28.6 µM | TGI [5]: > 79.7 µM | TGI [6]: > 100 µM | TGI [7]: 22.8 µM | TGI [8]: > 75.1 µM | TGI [9]: 24.6 µM | TGI [10]: 20.2 µM | TGI [61]: 52.4 µM | TGI [11]: 56.3 µM | TGI [12]: 31.3 µM | TGI [13]: 17.7 µM | TGI [14]: > 83 µM | TGI [15]: > 96.5 µM | TGI [16]: > 100 µM | TGI [17]: 42.6 µM | TGI [18]: 58.4 µM | TGI [62]: 34.1 µM | TGI [19]: 46.6 µM | TGI [20]: 63.3 µM | TGI [21]: > 100 µM | TGI [22]: 21.1 µM | TGI [23]: > 90.5 µM | TGI [24]: 41.5 µM | TGI [25]: 24.2 µM | TGI [26]: 40.2 µM | TGI [27]: 25.9 µM | TGI [28]: 24.1 µM | TGI [63]: 51 µM | TGI [64]: 36.6 µM | TGI [65]: 36.7 µM | TGI [66]: 28.6 µM | TGI [29]: > 82.7 µM | TGI [30]: 66.9 µM | TGI [31]: 28.1 µM | TGI [32]: 35.5 µM | TGI [33]: 18.3 µM | TGI [67]: 96.5 µM | TGI [34]: 50.9 µM | TGI [35]: 54.5 µM | TGI [36]: > 80.2 µM | TGI [37]: 31.6 µM | TGI [68]: 21.6 µM | TGI [38]: > 88.7 µM | TGI [39]: 58.5 µM | TGI [40]: > 56.8 µM | TGI [41]: 23.6 µM | TGI [42]: > 75.9 µM | TGI [43]: 55.6 µM | TGI [44]: 28.6 µM | TGI [45]: 28.7 µM | TGI [46]: 30.8 µM | TGI [47]: 59 µM | TGI [48]: 46.5 µM | TGI [49]: 54.7 µM | TGI [50]: 34.9 µM | TGI [51]: > 100 µM | TGI [52]: > 100 µM | TGI [53]: 49.4 µM | TGI [69]: 67.1 µM | TGI [54]: 78.3 µM | TGI [55]: 33 µM | TGI [56]: 42.1 µM | TGI [57]: 26.8 µM | TGI [58]: > 77.8 µM | TGI [59]: 31.8 µM
